Common to all, as to experiment: NCI-60 cell line screen, 48 h
For assay [1], the system named is SF-539 CNS.
Assay [2] deals with SF-295 CNS.
Assay [3] has as its system UO-31 renal.
Assay [4] deals with HCT-116 colon.
Assay [5] relates to OVCAR-5 ovarian.
For assay [6], the system named is NCI-H460 lung.
Assay [7] deals with M14 melanoma.
The test system of assay [8] is CCRF-CEM leukemia.
For assay [9], the system named is CAKI-1 renal.
In assay [10] the test system is A498 renal.

SMILES strings stand for the structures. “And” between values parts separate entries of the source, which are not always exact repeats. Equal values may be shown once.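 Briefly, cells in 96-well plates were exposed to five compound concentrations for 48 h, and endpoints were estimated by linear interpolation. GI50 marks 50% less growth. TGI denotes the concentration required for complete inhibition of growth.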 Bounds are passed on as bounds.

For the molecule `Fc1cccc(COc2ccc(Nc3ncnc4onc(-c5ccccc5)c34)cc2)c1`, the GI50 was 185 nM in assay [1]; 405 nM in assay [2]; 3 µM in [3]; 54.6 nM in [4]; 340 nM in assay [5]; 66.1 nM in assay [6]. The GI50 was 179 nM in [7], 287 nM in assay [8], 0.573 µM in [9] and 240 nM in [10]. Also, the TGI was 1.09 µM in [1]; greater than 26.7 µM in [2]; 26.8 µM in [3]; greater than 37.4 µM in assay [4]; 29.3 µM in assay [5]; greater than 53.3 µM in assay [6]. The TGI in assay [7] is greater than 100 µM; in [8] it was greater than 50.4 µM; in assay [9] it was greater than 100 µM; in assay [10], 3.18 µM.
For the molecule `CC1(C)N=C(N)N=C(N)N1c1ccc(CNC(=O)Nc2ccc(S(=O)(=O)F)c(Cl)c2)c(Cl)c1`, the GI50 in assay [1] is 1110 nM; in assay [2], 5410 nM; in [3], 53.7 µM; in [4], 379 nM; in assay [5] it was 332 nM; in assay [6] it was 45.6 nM. For the same molecule, the GI50 in assay [7] was 1240 nM; in [8], 477 nM; in assay [9], 12.5 µM; in [10], 9500 nM. In addition, the TGI is 25 µM in assay [1]; greater than 100 µM in [2]; greater than 100 µM in assay [3]; greater than 100 µM in [4]; greater than 100 µM in [5]; greater than 100 µM in assay [6]. The TGI in assay [7], in assay [8], in assay [9] and in [10] was greater than 100 µM each time.
Take `Cc1cc(OCc2nnc3n2S(=O)(=O)c2ccccc2N3C)ccc1Cl`: the TGI in assay [1] was 38.6 µM; in assay [2] it was 50.2 µM; in assay [3] it was greater than 100 µM; in assay [4], greater than 100 µM; in assay [5], greater than 100 µM; in assay [6], greater than 100 µM. The TGI in assay [7] was greater than 100 µM; in [8], 38 µM; in assay [9] it was greater than 100 µM; in [10] it was 55.3 µM.
In the case of `COc1cc(CCC[P+](c2ccccc2)(c2ccccc2)c2ccccc2)c(OC)c2c1OCO2`, the GI50 in [1] was 2310 nM; in assay [2] it was 2370 nM; in [3] it was 10.8 µM; in [4], 989 nM; in assay [5] it was 2380 nM; in assay [6], 1810 nM. In addition, the GI50 in assay [7] was 1800 nM; in assay [8], 1610 nM; in assay [9], 2.42 µM; in assay [10], 1410 nM. Further, the TGI in assay [1] was 12.6 µM; in assay [2], 7.39 µM; in [3], 44.1 µM; in assay [4] it was 16.2 µM; in assay [5], 37 µM; in assay [6], 5.58 µM. In addition, the TGI in assay [7] is 13.7 µM; in assay [8] it was greater than 100 µM; in assay [9], 7.18 µM; in [10], 4.28 µM.
`Cc1cc2c(F)c(Oc3ncnc(Nc4ccc(N5C[C@@H](C)N[C@@H](C)C5)cc4)c3C#N)cc(F)c2[nH]1`: the GI50 is 1530 nM in [1]; 1950 nM in [2]; 1.1 µM in [3]; 1690 nM in assay [4]; 2800 nM in assay [5]; 2060 nM in [6]. Moreover, the GI50 in assay [7] is 1870 nM; in assay [8] it was 1640 nM; in assay [9] it was 2.99 µM; in assay [10], 13.4 nM. Moreover, the TGI was 2.94 µM in assay [1]; 3.94 µM in assay [2]; 3.39 µM in assay [3]; 3.2 µM in [4]; 8.68 µM in assay [5]; 4.37 µM in [6]. Also, the TGI in assay [7] was 3.59 µM; in assay [8], 9.16 µM; in assay [9], 10.9 µM; in assay [10], 0.384 µM.
As to `O=C(O)c1cccc(S(=O)(=O)NCCO)c1`, the TGI in assay [1], in assay [2], in assay [3], in assay [4], in assay [5] and in [6] was greater than 100 µM each time. The TGI in [7], in assay [8], in [9] and in assay [10] was greater than 100 µM each time.
`COc1ccc(Br)cc1NC(=O)Nc1cccc2c1ccn2Cc1ccnc(N)c1`: the GI50 is 3340 nM and 2380 nM in [1]; 3690 nM and 3610 nM in assay [2]; 9.78 µM and 3.12 µM in assay [3]; 5850 nM and 5750 nM in [4]; 12700 nM and > 10000 nM in [5]; 3850 nM and 4200 nM in assay [6]. The GI50 is 3090 nM and 2680 nM in assay [7]; 3920 nM and 5430 nM in [8]; 4.79 µM and 8.78 µM in assay [9]; 2410 nM and 4120 nM in [10]. Also, the TGI was 19.3 µM and > 10 µM in assay [1]; 17.6 µM and > 10 µM in [2]; 26.3 µM and > 10 µM in assay [3]; 19.5 µM and > 10 µM in assay [4]; 58.4 µM and > 10 µM in assay [5]; 15.1 µM and > 10 µM in assay [6]. In addition, the TGI in [7] is 10.5 µM and > 10 µM; in assay [8] it was 40 µM and > 10 µM; in assay [9], 21.5 µM and > 10 µM; in assay [10] it was 11.6 µM and > 10 µM.
Regarding `CCOC(=O)C12CCCC1(O)N(NC(=O)OC)C(C)=C2C(=O)OC` (stereo not given), the TGI in [1] is greater than 100 µM; in [2], greater than 10 µM; in [3] it was greater than 100 µM; in assay [4], greater than 100 µM; in [5], greater than 100 µM; in assay [6], greater than 100 µM. Moreover, the TGI in assay [7], in assay [8], in assay [9] and in [10] was greater than 100 µM in each case.

The record behind these values is PubChem BioAssay (NCI).
